“Also recorded” adds a separate entry of the source. Where two headings read alike, the source gives them in different places.
Experiments:
[1] = test system: human subject; settings: in vivo, po
[2] = test system: MDCK cells
[3] = molecular target: A-beta1-42 peptide (Homo sapiens, UniProt P05067); type: biochemical
[4] = test system: Caco-2 cells
[5] = molecular target: A-beta peptide (Homo sapiens, UniProt P05067); type: biochemical
[6] = molecular target: A-beta peptide fragment (Homo sapiens, UniProt P05067); test: CD helix-coil reversal and pretreatment experiments (Example 11); type: biochemical
[7] = test system: A-beta peptide; parameters: species or system human
[8] = test system: A-beta antigen; parameters: species or system human
[9] = in vivo; cited from earlier work
[10] = 20 mM in 25 mM or 100 mM MOPS, pH 7.1
[11] = Permeation of Transwell membranes alone (wells without cells)

A-beta peptide fragment, sequence (P05067 672-713): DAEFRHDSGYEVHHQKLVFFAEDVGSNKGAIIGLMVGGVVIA
A-beta1-42 peptide, sequence (P05067 672-713): as above
A-beta peptide (Homo sapiens, UniProt P05067), sequence (P05067 672-713): as above

Compound: C[Si](C)(Cl)CC[Si](C)(C)Cl
- effect on development of neurofibrillary tangles and senile plaques [1]: interferes with further development of neurofibrillary tangles and senile plaques

Compound: C[Si](Cl)(Cl)CCC#N [CEMS, 2-cyanoethylmethyldichlorosilane]
- Total Permeation Coefficient (cm/sec) Mean ± SD, where applicable, MDCK ([2]; dog): 1.3e-06 cm/s
- amount of Al added until which helicity was preserved [3]: about 1 equivalent
- protection of helical structure of A-beta1-42 against amyloid formation by aluminum (III) [3]: protection of the helical structure
- Permeation Coefficient (cm/sec) Mean ± SD, where applicable ([4]; human, Caco-2): 4.6e-06 cm/s
- Total Permeation Coefficient (cm/sec) Mean ± SD, where applicable, Caco-2 ([4]; human, Caco-2): 4.6e-06 cm/s
- protection from and/or reversal of metal-induced aggregation (DLS) [5]: protection against Al^3+-induced aggregation
- protection against loss of helicity upon addition of Al(ClO4)3 [6]: protection against loss of helicity
- recovery of helical structure (CD) [6]: recovery of helical structure
- recovery of helicity (CD) [6]: recovery of helicity
- recovery of helicity in Al-denatured peptide / reversal of aluminum-induced denaturation (CD) [6]: appeared to reverse aluminum-induced denaturation; also recorded: recovery of helicity
- total extracted [7]: 4.5 fmol
- total extracted [8]: 1.4 fmol

Compound: O=C(O)CN(CCN(CC(=O)O)CC(=O)O)CC(=O)O [EDTA, ethylenediaminetetraacetic acid]
- time typical doses last in the body [9]: about 1 hour

Compound: C[Si](Cl)(Cl)CC[Si](C)(Cl)Cl [compound 1042, 1,2-(methyldichlorosilyl)ethane]
- Cell Permeation Coefficient (cm/sec) MDCK [2]: 5.6e-05 cm/s
- Total Permeation Coefficient (cm/sec) Mean ± SD, where applicable, MDCK [2]: 1.8 ± 1.2 × 10^−5 cm/sec
- cell permeation coefficient compared with mannitol, MDCK [2]: at least ten times greater
- crossing of the epithelial barrier in the MDCK model [2]: cross the epithelial barrier relatively efficiently
- permeation across MDCK cells compared with mannitol [2]: at least ten times greater
- Cell Permeation Coefficient (cm/sec) Caco-2 ([4]; Caco-2): 6.7e-05 cm/s
- Permeation Coefficient (cm/sec) Mean ± SD, where applicable ([4]; Caco-2): 2.5e-05 cm/s
- Total Permeation Coefficient (cm/sec) Mean ± SD, where applicable, Caco-2 ([4]; Caco-2): 1.9 ± 1.1 × 10^−5 cm/sec
- cell permeation coefficient compared with mannitol, Caco-2 ([4]; Caco-2): at least ten times greater
- crossing of the epithelial barrier in the Caco-2 model ([4]; Caco-2): cross the epithelial barrier relatively efficiently
- permeation across Caco-2 cells compared with mannitol ([4]; Caco-2): at least ten times greater
- recovery of helicity in Al-denatured peptide / reversal of aluminum-induced denaturation (CD) ([6]; TFE solution, Al(ClO4)3): recovery of helicity
- amyloid extracted compared with MOPS / buffer controls [7]: more amyloid
- share of total antigen released to the extract [7]: approximately 6%
- total extracted [7]: 17.2 fmol
- time for which solutions were free of precipitate or colloidal suspensions / stable after preparation [10]: at least 24 hours
- share of total antigen released to the extract [8]: approximately 12%
- total extracted [8]: 14.0 fmol

Compound: OC[C@@H](O)[C@@H](O)[C@H](O)[C@H](O)CO [mannitol, reference compound]
- Cell Permeation Coefficient (cm/sec) MDCK ([2]; dog, 60 min): 1.4e-06 cm/s
- Total Permeation Coefficient (cm/sec) Mean ± SD, where applicable, MDCK ([2]; dog, 60 min, 20 mM): 1.3 ± 1.0 × 10^−6 cm/sec
- Cell Permeation Coefficient (cm/sec) Caco-2 ([4]; human, Caco-2, 60 min): 2.6e-06 cm/s
- Permeation Coefficient (cm/sec) Mean ± SD, where applicable ([4]; human, Caco-2, 60 min, 20 mM): 1.9 ± 1.9 × 10^−6 cm/sec
- Total Permeation Coefficient (cm/sec) Mean ± SD, where applicable, Caco-2 ([4]; human, Caco-2, 60 min, 20 mM): 1.9 ± 1.9 × 10^−6 cm/sec
- Transwell Permeation Coeff. Mean ± SD, where applicable [11]: 3.6 ± 0.3 × 10^−5 cm/sec

Reference: patent US20090203644A1, “Compositions for treating and/or preventing diseases characterized by the presence of metal ions” (GrenPharma LLC, priority 2004, published 2009)
